Earlier results in patent US9072782B2, “Gadolinium complex, method for preparing same, and MRI contrast agent comprising same” (CATHLOIC UNIVERSITY INDUSTRY ACADEMIC COOPERATION FOUNDATION, priority 2009, dated 2015).

How the values were obtained:
[1] = prior DTPA-Gd
[2] = Hiroki Yoshikawa et al., Gazoshindan 1986

time taken to be washed out from tissue [1]: about 30 minutes | half-life [2]: about 14 minutes
SMILES: O=C([O-])CN(CCN(CC(=O)[O-])CC(=O)O)CCN(CC(=O)[O-])CC(=O)O.[Gd+3] [DTPA-Gd]
